Experiments:
L1210 [1] = experiment: Inhibition of [3H]thymidine uptake into L1210 cells at a concentration of 1 uM; type: functional; conditions: Mus musculus
L1210 [2] = experiment: Reduction of [3H]thymidine uptake into L1210 cells at a concentration of 1 uM; type: functional, Mus musculus
L1210 [3] = experiment: Compound was tested for inhibition of [3H]thymidine uptake into L1210 cells at a concentration of 10 uM; type: functional; conditions: Mus musculus

| SMILES | inhibition at 1 µM (L1210 [1]) | Reduction (L1210 [2]) | inhibition at 10 µM (L1210 [3]) |
| --- | --- | --- | --- |
| COc1ccc(CNc2nc(NCC(C)O)nc3c(NCc4ccc(OC)c(OC)c4)nc(NCC(C)O)nc23)cc1OC (stereo not given) | 85% | 14% |  |
| COc1ccc(CNc2nc(OCCO)nc3c(NCc4ccc(OC)c(OC)c4)nc(OCCO)nc23)cc1OC | 57% | 23% |  |
| COc1ccc(CN(C)c2nc(NCC(C)O)nc3c(N(C)Cc4ccc(OC)c(OC)c4)nc(NCC(C)O)nc23)cc1OC (stereo not given) | 73% | 22% |  |
| OCCN(CCO)c1nc(NCc2ccccc2)c2nc(N(CCO)CCO)nc(NCc3ccccc3)c2n1 | 38% | 45% |  |
| COc1ccc(CN(C)c2nc(NCC(C)O)nc3c(N(C)Cc4ccc(OC)cc4)nc(NCC(C)O)nc23)cc1 (stereo not given) | 39% | 86% |  |
| OCCN(CCO)c1nc(N2CCCCC2)c2nc(N(CCO)CCO)nc(N3CCCCC3)c2n1 [DIPYRIDAMOLE] | 89% | 96% |  |
| COc1ccc(CNc2nc(N(CCO)CCO)nc3c(NCc4ccc(OC)c(OC)c4)nc(N(CCO)CCO)nc23)cc1OC | 71% | 26% |  |
| COc1ccc(CN(C)c2nc(N(CCO)CCO)nc3c(N(C)Cc4ccc(OC)cc4)nc(N(CCO)CCO)nc23)cc1 | 75% | 47% |  |
| COc1ccc(CNc2nc(N(CCO)CCO)nc3c(NCc4ccc(OC)cc4)nc(N(CCO)CCO)nc23)cc1 | 56% | 18% |  |
| COc1ccc(CN(C)c2nc(OCCCO)nc3c(N(C)Cc4ccc(OC)cc4)nc(OCCCO)nc23)cc1 | 69% | 53% |  |
| OCC(O)COc1nc(N2CCCCC2)c2nc(OCC(O)CO)nc(N3CCCCC3)c2n1 (stereo not given) |  | 22% | 37% |
| COc1ccc(CNc2nc(OCCO)nc3c(NCc4ccc(OC)cc4)nc(OCCO)nc23)cc1 | 40% | 30% |  |
| COc1ccc(CN(C)c2nc(OCCO)nc3c(N(C)Cc4ccc(OC)cc4)nc(OCCO)nc23)cc1 | 73% | 77% |  |
| COc1ccc(CNc2nc(NCC(C)O)nc3c(NCc4ccc(OC)cc4)nc(NCC(C)O)nc23)cc1 (stereo not given) | 57% | 45% |  |
| COc1ccc(CNc2nc(OCCCO)nc3c(NCc4ccc(OC)cc4)nc(OCCCO)nc23)cc1 | 66% | 26% |  |
